Assay results taken from US10780074B2, “Compounds and uses thereof” (Sunovion Pharmaceuticals Inc., priority 2017, dated 2020).
Structures can show the parent of a compound that is named as a salt. Where two headings read alike, the source gives them in different places.

System: behaviors of compound-treated mice
Assay: Neuropharmacological Assay (SmartCube)
Format: in vivo
Details: for minimal effective dose: Mus musculus, ip, 0.25 h, dose having 50% or more total activity in SmartCube, read-out: MED (minimal effective dose)
Method in brief: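 Behavioral signatures were captured automatically by video, and each drug class received a probability for the best of three i.p. doses given 15 min pre-test (vehicle: Pharmasolve/PEG/propylene glycol). Potency is given as MED, the lowest mpk dose (typically 0.3–30) reaching 50% or more total activity.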

[1] = i.p. 15 min before behavioral test, most efficacious dose(s) of 3 doses
[2] = SmartCube, i.p. 15 min before test, most efficacious dose(s)

Structure (SMILES) | minimal effective dose (i.p.) [mg/kg] | AD: ADHD (probability that activity matches class) [1] | AG: analgesic (probability that activity matches class) [1] | AX: anxiolytic (probability that activity matches class) [1] | CE: cognitive enhancer (probability that activity matches class) [1] | DP: anti-depressant (probability that activity matches class) [1] | MS: mood stabilizer (probability that activity matches class) [1] | PS: anti-psychotic (probability that activity matches class) [1] | SD: sedative hypnotic (probability that activity matches class) [1] | UN: uncharacterized CNS activity (probability that activity matches class) [1] | minimal effective dose [mg/kg] | AD: ADHD (probability that activity matches class) [2] | AG: analgesic (probability that activity matches class) [2] | AX: anxiolytic (probability that activity matches class) [2] | CE: cognitive enhancer (probability that activity matches class) [2] | DP: anti-depressant (probability that activity matches class) [2] | MS: mood stabilizer (probability that activity matches class) [2] | PS: anti-psychotic (probability that activity matches class) [2] | SD: sedative hypnotic (probability that activity matches class) [2] | UN: uncharacterized CNS activity (probability that activity matches class) [2]
CNC[C@H]1OCCCc2c(-c3cncs3)cccc21 (single isomer, unassigned) [Compound 169, hydrochloride salt] | 10 to 30 | + (LOQ ≤ + <5%) | + (LOQ ≤ + <5%) | + (LOQ ≤ + <5%) | + (LOQ ≤ + <5%) | + (LOQ ≤ + <5%) | + (LOQ ≤ + <5%) | + (LOQ ≤ + <5%) | + (LOQ ≤ + <5%) | + (LOQ ≤ + <5%) | – | – | – | – | – | – | – | – | – | –
NC[C@H]1OCCc2c(-c3cnccn3)cccc21 (single isomer, unassigned) [Compound 83, hydrochloride salt] | 3 to 10 | ++ (5% ≤ ++ <25%) | + (LOQ ≤ + <5%) | ++ (5% ≤ ++ <25%) | + (LOQ ≤ + <5%) | ++++ (50% ≤ ++++) | + (LOQ ≤ + <5%) | + (LOQ ≤ + <5%) | + (LOQ ≤ + <5%) | + (LOQ ≤ + <5%) | – | – | – | – | – | – | – | – | – | –
CNC[C@H]1OCCc2c(-c3ncc[nH]3)cccc21 [Compound 111, (S)-1-(5-(1H-Imidazol-2-yl)isochroman-1-yl)-N-methylmethanamine hydrochloride salt] | 10 to 30 | + (LOQ ≤ + <5%) | + (LOQ ≤ + <5%) | ++ (5% ≤ ++ <25%) | + (LOQ ≤ + <5%) | + (LOQ ≤ + <5%) | + (LOQ ≤ + <5%) | + (LOQ ≤ + <5%) | + (LOQ ≤ + <5%) | + (LOQ ≤ + <5%) | – | – | – | – | – | – | – | – | – | –
CNC[C@@H]1OCCc2cc(-c3cccnn3)ccc21 (single isomer, unassigned) [Compound 31, hydrochloride] | > 30 | + (LOQ ≤ + <5%) | + (LOQ ≤ + <5%) | ++ (5% ≤ ++ <25%) | + (LOQ ≤ + <5%) | ++ (5% ≤ ++ <25%) | + (LOQ ≤ + <5%) | + (LOQ ≤ + <5%) | + (LOQ ≤ + <5%) | + (LOQ ≤ + <5%) | – | – | – | – | – | – | – | – | – | –
NC[C@@H]1OCCc2c(-c3ccccc3)cccc21 (single isomer, unassigned) [Compound 130, hydrochloride salt] | 10 to 30 | + (LOQ ≤ + <5%) | + (LOQ ≤ + <5%) | ++ (5% ≤ ++ <25%) | + (LOQ ≤ + <5%) | ++ (5% ≤ ++ <25%) | + (LOQ ≤ + <5%) | + (LOQ ≤ + <5%) | + (LOQ ≤ + <5%) | + (LOQ ≤ + <5%) | – | – | – | – | – | – | – | – | – | –
CNC[C@H]1OCCc2c1cccc2-n1ccnc1 [Compound 183, (S)-1-(5-(1H-Imidazol-1-yl)isochroman-1-yl)-N-methylmethanamine hydrochloride salt] | – | – | – | – | – | – | – | – | – | – | 3 to 10 | + (LOQ ≤ + <5%) | + (LOQ ≤ + <5%) | + (LOQ ≤ + <5%) | + (LOQ ≤ + <5%) | ++++ (50% ≤ ++++) | + (LOQ ≤ + <5%) | + (LOQ ≤ + <5%) | + (LOQ ≤ + <5%) | ++ (5% ≤ ++ <25%)
Cc1cc(-c2cccc3c2CCO[C@H]3CN)ccn1 (single isomer, unassigned) [Compound 122, hydrochloride salt] | 10 to 30 | + (LOQ ≤ + <5%) | + (LOQ ≤ + <5%) | ++ (5% ≤ ++ <25%) | + (LOQ ≤ + <5%) | + (LOQ ≤ + <5%) | + (LOQ ≤ + <5%) | + (LOQ ≤ + <5%) | + (LOQ ≤ + <5%) | + (LOQ ≤ + <5%) | – | – | – | – | – | – | – | – | – | –
CNC[C@H]1OCCc2c1cccc2-n1cccn1 [Compound 187, (S)-1-(5-(1H-pyrazol-1-yl)isochroman-1-yl)-N-methylmethanamine] | – | – | – | – | – | – | – | – | – | – | 3 to 10 | ++ (5% ≤ ++ <25%) | + (LOQ ≤ + <5%) | + (LOQ ≤ + <5%) | + (LOQ ≤ + <5%) | ++++ (50% ≤ ++++) | + (LOQ ≤ + <5%) | + (LOQ ≤ + <5%) | + (LOQ ≤ + <5%) | + (LOQ ≤ + <5%)
NC[C@H]1OCc2c(-c3ccncc3)cccc21 (single isomer, unassigned) [Compound 38, hydrochloride salt] | ≤ 3 | ++ (5% ≤ ++ <25%) | ++ (5% ≤ ++ <25%) | +++ (25% ≤ +++ <50%) | + (LOQ ≤ + <5%) | ++++ (50% ≤ ++++) | + (LOQ ≤ + <5%) | + (LOQ ≤ + <5%) | ++ (5% ≤ ++ <25%) | ++ (5% ≤ ++ <25%) | – | – | – | – | – | – | – | – | – | –
CNC[C@@H]1OCCc2c(-c3ncco3)cccc21 [Compound 104, (R)—N-Methyl-1-(5-(oxazol-2-yl)isochroman-1-yl)methanamine hydrochloride salt] | > 30 | + (LOQ ≤ + <5%) | + (LOQ ≤ + <5%) | ++ (5% ≤ ++ <25%) | + (LOQ ≤ + <5%) | ++ (5% ≤ ++ <25%) | + (LOQ ≤ + <5%) | + (LOQ ≤ + <5%) | + (LOQ ≤ + <5%) | + (LOQ ≤ + <5%) | – | – | – | – | – | – | – | – | – | –
NC[C@H]1OCCc2c(-c3cnco3)cccc21 (single isomer, unassigned) [Compound 99, hydrochloride salt] | ≤ 3 | + (LOQ ≤ + <5%) | ++ (5% ≤ ++ <25%) | ++ (5% ≤ ++ <25%) | ++ (5% ≤ ++ <25%) | + (LOQ ≤ + <5%) | + (LOQ ≤ + <5%) | + (LOQ ≤ + <5%) | ++ (5% ≤ ++ <25%) | +++ (25% ≤ +++ <50%) | – | – | – | – | – | – | – | – | – | –
CNCC1OCCc2c(-c3ccnnc3)cccc21 (stereo not shown) [Compound 54, N-Methyl-1-(5-(pyridazin-4-yl)isochroman-1-yl)methanamine hydrochloride salt] | 3 to 10 | + (LOQ ≤ + <5%) | + (LOQ ≤ + <5%) | + (LOQ ≤ + <5%) | ++ (5% ≤ ++ <25%) | ++++ (50% ≤ ++++) | + (LOQ ≤ + <5%) | + (LOQ ≤ + <5%) | + (LOQ ≤ + <5%) | + (LOQ ≤ + <5%) | – | – | – | – | – | – | – | – | – | –
CNC[C@H]1OCCc2c(-c3ccon3)cccc21 (single isomer, unassigned) [Compound 91, hydrochloride salt] | ≤ 3 | ++++ (50% ≤ ++++) | + (LOQ ≤ + <5%) | ++ (5% ≤ ++ <25%) | + (LOQ ≤ + <5%) | ++++ (50% ≤ ++++) | + (LOQ ≤ + <5%) | + (LOQ ≤ + <5%) | ++ (5% ≤ ++ <25%) | +++ (25% ≤ +++ <50%) | – | – | – | – | – | – | – | – | – | –
